The values that follow come from patent publication US20100062970A1, “SYNTHESIS OF PROPYL PHENOXY ETHERS AND USE AS DELIVERY AGENTS” (Emisphere Technologies Inc., priority 2006, published 2010).

For this assay, the system named is whole blood glucose. Briefly: In vivo delivery of insulin to fasted rats via oral gavage (whole blood glucose). More on the design: species or system rat. As to conditions: male Sprague-Dawley rats, delivery agent 200 mg/kg with insulin (human recombinant) 0.5 mg/kg. The procedure:
Insulin (human recombinant) was obtained from ICN Biomedicals (Aurora, Ohio) as a bulk powder. To prepare stock solutions, insulin was dissolved in deionized water (pH˜6.5) to obtain a concentration of 15 mg/ml. Stock solutions were kept frozen at −20° C. in 1.0-ml aliquots until used. For dosing solutions, delivery agent was dissolved in deionized water to obtain a final concentration of 200 mg/ml. The free acid form of delivery agent was converted to the sodium salt by adding one equivalent of sodium hydroxide. Solutions were vortexed, sonicated, and heated, and if necessary, additional sodium hydroxide was added in μl quantities to achieve uniform solubility. Solutions were adjusted to a pH of 3.5-8.5 by the addition of either hydrochloric acid or sodium hydroxide. Insulin stock (typically 66.7 μls) was then added to the delivery agent solution to obtain a final concentration of 0.5 mg/ml. After solubilization and drug addition, solutions were brought to final volume by the addition of deionized water.
Insulin was administered to male, Sprague-Dawley rats either alone or in combination with an Emisphere delivery agent by oral gavage (PO). Rats were fasted for 18-24 hours prior to dosing. For dosing, a Rusch 8 French catheter was cut to 11 cm in length and adapted to fit a 1-ml syringe. The syringe was filled with dosing solution and the catheter was wiped dry of excess solution. The catheter was inserted into the rat mouth and fed down the esophagus (10.0 cm). The dosing solution was delivered by pressing the syringe plunger while holding the rat in an upright position.
During blood sampling, rats were exposed briefly (˜10 sec) to carbon dioxide until prostrate, immediately prior to each sampling time point. For blood sampling, a 77-mm capillary tube was inserted into the retroorbital sinus. Typically, blood samples were collected prior to dosing (time 0) and at 15, 30, 45, and 60 minutes after dosing. Samples were collected into Capiject® tubes (Terumo Corporation, Tokyo, Japan) containing a clot activator (red top, serum separator tubes). Samples were allowed to clot for ˜20 min at 4° C. After clotting, samples were centrifuged at 10,000 rpm for 4 minutes at 6° C. in order to separate the serum. Serum was collected into eppendorf tubes and frozen at −20° C. until assayed.
In order to determine the pharmacodynamic response, a hand-held glucometer (OneTouch Ultra, LifeScan® (Johnson & Johnson, New Brunswick, N.J.)) was used to measure whole blood glucose after administration of insulin or insulin and delivery agent. Samples were collected either from the retroorbital sinus (see Sample collection and handling: Insulin) or from the tail artery (i.e. tail clip). For tail clipping, the tip of the tail was severed approximately 5 mm from the tip using a scalpel blade. After discarding the first drop of blood, a small sample (˜5-10 μl) was touched to the glucometer test strip (OneTouch Ultra, LifeScan) and a blood glucose reading was generated by the meter. For each subsequent sampling time point, the clot formed at the tip of the tail was broken up and a fresh sample was collected. Typically, samples were collected prior to dosing (time 0) and at 15, 30, 45, and 60 minutes after dosing.
Concentrations of insulin were quantified in rat serum using a sandwich-type ELISA (kit; Diagnostic Systems Laboratories, Inc., Webster, Tex.). The calibrated assay range was 12.5-250.0 μlU/mL. Serum from rats was obtained internally from stock animals and used to prepare calibration standards and low and high quality control samples (LQC, HQC). The low and high quality control samples for the second curve were prepared at 30 and 150 μlU/mL, respectively. Calibration standards were prepared fresh daily and quality control samples were stored at a nominal temperature of −20° C. Concentration values (test samples) were read from the standard curve, averaged for each time point (n=5), and plotted as mean serum concentration of insulin (±SEM) versus time. […]

Turning to `Cc1cccc(OCCC(=O)O)c1C` [Compound 5, 3-(2,3-Dimethyl-phenoxy)-propionic acid], the “% Glucose Cmin (Rat)” value is recorded as −22.2%. In the case of `Cc1ccccc1OCCC(=O)O` [Compound 8, 3-o-Tolyloxy-propionic acid], the “% Glucose Cmin (Rat)” value is on record as −24.2%.

For `Cc1ccc(OCCC(=O)O)cc1C` [Compound 2, 3-(3,4-Dimethyl-phenoxy)-propionic acid], the “% Glucose Cmin (Rat)” value is −48.2%. Consider `Cc1cccc(OCCC(=O)O)c1` [Compound 6, 3-m-Tolyloxy-propionic acid], for which the “% Glucose Cmin (Rat)” value is given as −29.3%. The result for `Cc1cccc(C)c1OCCC(=O)O` [Compound 7, 3-(2,6-Dimethyl-phenoxy)-propionic acid] reads −42.1%; that for `Cc1ccc(C)c(OCCC(=O)O)c1` [Compound 4, 3-(2,5-Dimethyl-phenoxy)-propionic acid], −39.6%.

For the compound `Cc1ccc(OCCC(=O)O)c(C)c1` [Compound 9, 3-(2,4-Dimethyl-phenoxy)-propionic acid], the “% Glucose Cmin (Rat)” value is −40.3%.

For the compound `Cc1cc(C)cc(OCCC(=O)O)c1` [Compound 3, 3-(3,5-Dimethyl-phenoxy)-propionic acid], the “% Glucose Cmin (Rat)” value is −16.6%. `O=C(O)CCOc1ccccc1Cl` [Compound 1, 3-2-Chloro-phenoxy-propionic acid]: the “% Glucose Cmin (Rat)” value is listed as −47.0%.
